Data from ChEMBL document CHEMBL3507680, “University of Dundee, Gates Library screen for HepG2 cell viability”.

Assay: Human HepG2 cell viability assay in 384 well format
Assay type: toxicity, cell-based
Design: dose 125 nL, time 70.5 hour; concentration not given beside the values
Conditions: HepG2 cells, read-out: Inhibition

O=C(c1ccccc1F)N1CC(c2nc(C3CC3)no2)C1
cytotoxicity at 70.5 h: -11.5%

O=C(Nc1cccs1)N1CC(c2nc(C3CC3)no2)C1
cytotoxicity at 70.5 h: -5.71%

O=C(C1CCCC1)N1CC(c2nc(Cc3ccccc3)no2)C1
cytotoxicity at 70.5 h: -14.5%

CCOC(=O)CCC(=O)N1CC(c2nc(Cc3ccccc3)no2)C1
cytotoxicity at 70.5 h: -6.9%

Cc1noc(C2CN(CC(=O)NCC3CCCO3)C2)n1 (configuration not stated)
cytotoxicity at 70.5 h: -3.62%

N#Cc1cccc(C(=O)N2CC(c3nc(-c4cccnc4)no3)C2)c1
cytotoxicity at 70.5 h: 10%

O=C(Cc1cccs1)N1CC(c2nc(-c3cnccn3)no2)C1
cytotoxicity at 70.5 h: -6.93%

O=C(c1ccsc1)N1CC(c2nc(-c3ccc[nH]c3=O)no2)C1
cytotoxicity at 70.5 h: 12.8%

O=C(c1ccc(Cl)s1)N1CC(c2nc(-c3ccc[nH]c3=O)no2)C1
cytotoxicity at 70.5 h: -8.84%

O=C(c1ccno1)N1CC(c2nc(-c3ccco3)no2)C1
cytotoxicity at 70.5 h: -1.91%

O=C(NCC(Cc1cccc(F)c1)N1CCCC1=O)c1ccc(=O)[nH]n1 (configuration not stated)
cytotoxicity at 70.5 h: 1.13%

CCCC(=O)NCC(Cc1cccc(F)c1)N1CCCC1=O (configuration not stated)
cytotoxicity at 70.5 h: -3.15%

CS(=O)(=O)NCC(Cc1cccc(F)c1)N1CCNC1=O (configuration not stated)
cytotoxicity at 70.5 h: -13.3%

O=S(=O)(Cc1ccccc1Cl)N1CCC2(CC1)OCCS2
cytotoxicity at 70.5 h: -5.23%

CCc1ccccc1NC(=O)C1CN(C(C)=O)C1
cytotoxicity at 70.5 h: 11.2%

N#Cc1ccccc1NC(=O)C1CN(C(=O)c2ccc3c(c2)OCO3)C1
cytotoxicity at 70.5 h: -7%

O=C(Cc1cccs1)N1CCOCC1CO (configuration not stated)
cytotoxicity at 70.5 h: -3.61%

C1CCN(c2nc(N3CCOCC3)nc3[nH]nnc23)CC1
cytotoxicity at 70.5 h: -5.52%

O=C(NC1CCCC1)C1CCN(c2cc(-n3ccnc3)ncn2)CC1
cytotoxicity at 70.5 h: 12.8%

Cc1cccc(S(=O)(=O)NCC2CCN(c3cnccn3)CC2)c1
cytotoxicity at 70.5 h: -10.1%

CCc1ccc(S(=O)(=O)NCC2CCN(c3cnccn3)CC2)s1
cytotoxicity at 70.5 h: -10.3%

O=C(Cc1ccccc1Cl)NCCN1CCC(c2cccs2)CC1
cytotoxicity at 70.5 h: 1.31%

O=C(NCCc1ccccc1)NCCN1CCC(c2cccs2)CC1
cytotoxicity at 70.5 h: 8.49%

CSCC(C)(O)CNC(=O)c1cc(Cl)ccc1Cl (configuration not stated)
cytotoxicity at 70.5 h: -7.98%

CSCC(C)(O)CNS(=O)(=O)c1ccc(F)cc1 (configuration not stated)
cytotoxicity at 70.5 h: -7.51%

CSCC(C)(O)CNS(=O)(=O)c1cccc(Cl)c1 (configuration not stated)
cytotoxicity at 70.5 h: -4.18%

CSCC(C)(O)CNS(=O)(=O)c1ccc(Br)cc1 (configuration not stated)
cytotoxicity at 70.5 h: 23.8%

CSCCC(C)(O)CNC(=O)Nc1ccccc1C (configuration not stated)
cytotoxicity at 70.5 h: -6.41%

O=C(NCCC(O)c1ccco1)c1ccco1 (configuration not stated)
cytotoxicity at 70.5 h: -5.28%

CSc1ncccc1C(=O)NCCC(O)c1ccco1 (configuration not stated)
cytotoxicity at 70.5 h: 1.61%

O=C(NCCC(O)c1cccs1)c1ccc(Br)o1 (configuration not stated)
cytotoxicity at 70.5 h: -10.7%

COc1ccc(Cl)cc1NC(=O)N1CCc2nc(NC(C)=O)sc2C1
cytotoxicity at 70.5 h: -5.4%

O=C(Nc1nc2c(s1)CN(S(=O)(=O)C1CC1)CC2)c1ccc(=O)[nH]c1
cytotoxicity at 70.5 h: -10.9%

COc1ccccc1C(=O)Nc1nc2c(s1)CN(S(=O)(=O)C1CC1)CC2
cytotoxicity at 70.5 h: -3.51%

Cc1cc(C(=O)Nc2nc3c(s2)CN(S(=O)(=O)C2CC2)CC3)c(C)o1
cytotoxicity at 70.5 h: 4.31%

O=C(Nc1nc2c(s1)CN(S(=O)(=O)C1CC1)CC2)c1ccc(Cl)s1
cytotoxicity at 70.5 h: -11.1%

O=C(NCC1(O)CCOCC1)c1ccc(F)cc1
cytotoxicity at 70.5 h: -4.94%

O=S(=O)(NCC1(O)CCOCC1)c1c(F)cccc1F
cytotoxicity at 70.5 h: -2.88%

O=S(=O)(NCC1(O)CCOCC1)c1ccccc1Br
cytotoxicity at 70.5 h: -0.33%

COc1ccccc1OCC(=O)NCC(C)(O)c1ccccc1 (configuration not stated)
cytotoxicity at 70.5 h: -12.5%

O=S(=O)(NCC1(O)CCOc2ccccc21)c1ccccc1F (configuration not stated)
cytotoxicity at 70.5 h: -4.25%

O=S(=O)(NCC1(O)CCOc2ccccc21)c1ccccc1Br (configuration not stated)
cytotoxicity at 70.5 h: -0.163%

Cc1cc(CNC(=O)c2ccno2)c(C)o1
cytotoxicity at 70.5 h: -7.21%

Cc1cc(CNC(=O)COc2ccccc2F)c(C)o1
cytotoxicity at 70.5 h: -0.958%

COc1cc(NC(=O)NCc2cc(C)oc2C)cc(OC)c1
cytotoxicity at 70.5 h: -5.36%

O=C1CC(NS(=O)(=O)c2ccc(Br)cc2)CN1 (configuration not stated)
cytotoxicity at 70.5 h: -4.25%

O=C(NC1CC(=O)N(C2CC2)C1)c1cccs1 (configuration not stated)
cytotoxicity at 70.5 h: 11.1%

CN(C)C(=O)c1cnn2c1OCCC2
cytotoxicity at 70.5 h: -2.65%

CS(=O)(=O)N1CCN(C(=O)c2cnn3c2OCCC3)CC1
cytotoxicity at 70.5 h: -2.74%

COc1ccccc1C(=O)N1CC2(COC(C)(C)OC2)C1
cytotoxicity at 70.5 h: -0.0905%

CC1(C)OCC2(CO1)CN(C(=O)c1ccccc1Br)C2
cytotoxicity at 70.5 h: -4.2%

CC(=O)Nc1cnc(-n2ccnc2)nc1
cytotoxicity at 70.5 h: -1.27%

CC(=O)N(C)CC(=O)Nc1cnc(-n2ccnc2)nc1
cytotoxicity at 70.5 h: 0.242%

COc1ccc(NC(=O)Nc2cnc(N3CCN(C)CC3)nc2)cc1Cl
cytotoxicity at 70.5 h: -0.129%

Cc1ccc(NC(=O)Nc2cnc(N3CCN(C)CC3)nc2)cc1
cytotoxicity at 70.5 h: 27.1%

O=S(=O)(Nc1cnc(N2CCCC2)nc1)c1ccc(F)cc1F
cytotoxicity at 70.5 h: -6.31%

Cc1ccc(F)cc1S(=O)(=O)Nc1cnc(N2CCCC2)nc1
cytotoxicity at 70.5 h: -9.37%

O=C(C[C@H]1[C@H]2CN(C(=O)c3cccnc3)C[C@@H]12)Nc1cccnc1
cytotoxicity at 70.5 h: -1.44%

c1ccc(-c2nc(CNC3CCc4ncnn4C3)cs2)cc1 (configuration not stated)
cytotoxicity at 70.5 h: 0.00764%

Cc1nnc2n1CCN(C(C(=O)NC(C)C)c1ccccc1)C2 (configuration not stated)
cytotoxicity at 70.5 h: 19.5%

CCNc1cc2c(nn1)CCN(C(=O)Cc1ccc(C)nc1)C2
cytotoxicity at 70.5 h: -6.5%

COCc1nc(C(=O)NS(=O)(=O)c2c(C)c(C)cc(C)c2C)cs1
cytotoxicity at 70.5 h: 2.47%

Cc1ccc2oc(C(=O)N3CCCC(n4ccnc4C)C3)cc2n1 (configuration not stated)
cytotoxicity at 70.5 h: 0.879%

O=C(CCCOc1ccccc1)N1CCCC(n2cncn2)C1 (configuration not stated)
cytotoxicity at 70.5 h: 2.63%

N#Cc1ccc(CS(=O)(=O)NC(=O)COc2ccc3c(c2)CCC3)cc1
cytotoxicity at 70.5 h: -5.23%

COCc1nc(C(=O)NS(=O)(=O)c2ccc(F)cc2F)cs1
cytotoxicity at 70.5 h: 0.492%

Cn1cc(-c2nc(CN3CCc4c(ncn4C)C3)cs2)cn1
cytotoxicity at 70.5 h: 31%

CCN(CC1CCOC1)C(=O)Nc1ccc(N2CCOCC2)nc1 (configuration not stated)
cytotoxicity at 70.5 h: 18.9%

O=C(c1cc(C2CC2)on1)N1CCCC(n2cccn2)C1 (configuration not stated)
cytotoxicity at 70.5 h: 23.8%

Cn1cnc2c1CCN(Cc1csc(-c3ccccc3)n1)C2
cytotoxicity at 70.5 h: 24.1%

NC(=O)C1CCN(C(=O)c2ccc(OCc3cscn3)cc2)CC1
cytotoxicity at 70.5 h: 55.1%

O=C(c1cccc(OCc2cscn2)c1)N1CCOCC1
cytotoxicity at 70.5 h: 0.0866%

CC(=O)N1CCC(NC(=O)N(C)Cc2c(C)noc2C)CC1
cytotoxicity at 70.5 h: -8.21%

O=C(NCCn1ccnc1)N1CCCC1c1ccncc1 (configuration not stated)
cytotoxicity at 70.5 h: 1.26%

Cc1noc(C2CCCN(C(=O)CCNc3ncccn3)C2)n1 (configuration not stated)
cytotoxicity at 70.5 h: -13.2%

Cc1cnn(CC(=O)NCC2CCN(c3cc(Cl)ccc3C)C2)c1 (configuration not stated)
cytotoxicity at 70.5 h: 6.3%

CC(C)n1ccnc1CN1CCCN(C(=O)c2ncccc2O)CC1
cytotoxicity at 70.5 h: 0.148%

Cc1cc(C2CCCN2Cc2cc(=O)n(C)c(=O)n2C)no1 (configuration not stated)
cytotoxicity at 70.5 h: 18.5%

Cn1cnc2c1CCN(Cc1csc(-c3ccc(F)cc3)n1)C2
cytotoxicity at 70.5 h: -3.43%

c1ncn(CC2CCCN(Cc3cn4ccsc4n3)C2)n1 (configuration not stated)
cytotoxicity at 70.5 h: -5.75%

Cn1cc(CN2CCCN(C(=O)c3ccccn3)CC2)cn1
cytotoxicity at 70.5 h: -1.29%

CC(C(=O)NC1CC1)N1CCN(Cc2ccn(C)c(=O)c2)CC1 (configuration not stated)
cytotoxicity at 70.5 h: 0.0611%

O=C(NCC1CCOC1)Nc1ccc(Oc2cccc(F)c2)nc1 (configuration not stated)
cytotoxicity at 70.5 h: -10.7%

CN1CC(C(=O)NCc2ccnc(-n3cccn3)c2)CC1=O (configuration not stated)
cytotoxicity at 70.5 h: -22.4%

CN(C)c1ccc(C(=O)N2CCN(c3cnccn3)CC2)cn1
cytotoxicity at 70.5 h: -17.1%

CCC1c2ccsc2CCN1C(=O)NCc1ccnc(N(C)C)c1 (configuration not stated)
cytotoxicity at 70.5 h: -9.44%

CN(C)c1cc(C(=O)N2CCN(c3nccs3)CC2)ccn1
cytotoxicity at 70.5 h: -13.8%

CCC1c2ccsc2CCN1C(=O)NCc1cccnc1OC (configuration not stated)
cytotoxicity at 70.5 h: -11.2%

COc1cccc(-n2nnc(C(=O)N3CCCC(C)C3)c2C)c1 (configuration not stated)
cytotoxicity at 70.5 h: -10.2%

O=C(Nc1nccs1)NC1CCN(Cc2ccccc2)CC1
cytotoxicity at 70.5 h: -15.7%

CN(C)c1cc(C(=O)N2CCN(c3cc(C#N)ccn3)CC2)ccn1
cytotoxicity at 70.5 h: -16.5%

CCN1CC(C(=O)NCc2ccnc(-n3cccn3)c2)CC1=O (configuration not stated)
cytotoxicity at 70.5 h: -4.01%

O=C(c1ccc2c(c1)CCCC2)N1CCN(c2cnccn2)CC1
cytotoxicity at 70.5 h: -11.8%

CC(Nc1cccc(CN2CCOC2=O)c1)C(=O)Nc1cccc(F)c1 (configuration not stated)
cytotoxicity at 70.5 h: -0.899%

COc1ccccc1N1CCN(C(=O)c2ccnc(N(C)C)c2)CC1
cytotoxicity at 70.5 h: 36.2%

Cn1cc(NC(=O)C2CC(c3ccccc3)C2)ccc1=O (configuration not stated)
cytotoxicity at 70.5 h: -15.7%

O=C(Cc1cn2ccsc2n1)N1CCCC(n2cccn2)C1 (configuration not stated)
cytotoxicity at 70.5 h: -3.32%

COc1cccc(-n2nnc(C(=O)N3CCOC(C)C3)c2C)c1 (configuration not stated)
cytotoxicity at 70.5 h: -1.7%

Cn1cc(NC(=O)N2CCC2c2ccccc2)ccc1=O (configuration not stated)
cytotoxicity at 70.5 h: -4.87%

c1cncc(-c2noc(CNCC3CCCN3c3cccnn3)n2)c1 (configuration not stated)
cytotoxicity at 70.5 h: -2.21%

Cc1nc(C(=O)N2CCCN(Cc3cnn(C)c3)CC2)ccc1C#N
cytotoxicity at 70.5 h: -8.5%

CC(C)Oc1ccc(C(=O)N2CCCCC2Cn2cccn2)cn1 (configuration not stated)
cytotoxicity at 70.5 h: -4.78%

CCOc1ccc(C(=O)N2CCCC2Cn2cc(C)cn2)cn1 (configuration not stated)
cytotoxicity at 70.5 h: -5.61%

NC(=O)CN1CC(c2nc(C3CC3)no2)C1
cytotoxicity at 70.5 h: -7.4%

O=C(CN1CC(c2nc(C3CC3)no2)C1)NCc1ccc(F)cc1
cytotoxicity at 70.5 h: -4.69%

O=C(CN1CC(c2nc(C3CC3)no2)C1)NCC1CCCO1 (configuration not stated)
cytotoxicity at 70.5 h: 3.91%

O=C(CN1CC(c2nc(Cc3ccccc3)no2)C1)NCC1CCCO1 (configuration not stated)
cytotoxicity at 70.5 h: -0.885%

O=C(CN1CC(c2nc(-c3ccco3)no2)C1)NCc1ccc(F)cc1
cytotoxicity at 70.5 h: 0.546%

O=C(CN1CC(c2nc(-c3ccco3)no2)C1)NCC1CCCO1 (configuration not stated)
cytotoxicity at 70.5 h: 13.7%

Fc1ccc(COCC2CCN(Cc3ccccn3)CC2)cc1
cytotoxicity at 70.5 h: -4.18%

CNC(=O)C1CCC2(CCN(c3nncs3)CC2)CO1 (configuration not stated)
cytotoxicity at 70.5 h: -2.99%

O=C(C[C@H]1[C@H]2CN(c3ncccn3)C[C@@H]12)Nc1cccnc1
cytotoxicity at 70.5 h: 4.76%

CN(Cc1ccncc1)C1CC2(CCN(c3ncccn3)CC2)C1
cytotoxicity at 70.5 h: -3.37%

CN(C)CC1COCCN1C(=O)c1ccccc1C(=O)c1ccccc1 (configuration not stated)
cytotoxicity at 70.5 h: -7.66%

Cc1ccccc1C(=O)N1CCOCC1CN(C)C (configuration not stated)
cytotoxicity at 70.5 h: -9.03%

COc1cccc(C(=O)N2CCOCC2CN(C)C)c1OC (configuration not stated)
cytotoxicity at 70.5 h: -2.02%

CN(C)CC1COCCN1C(=O)C1(c2cccs2)CCCC1 (configuration not stated)
cytotoxicity at 70.5 h: 0.993%
